# Patent US10143691B2, “Pathogenic control of apoptosis” (CSIR, priority 2014, dated 2018)
# “Also recorded” adds a separate entry of the source. Like-named read-outs stand apart in the source and are kept apart here.
# Assays:
# [1] = tested on: hnRNP-K; assay: Immunofluorescence of hnRNP-K cellular location in Ghost(3) cells; assay type: cell-based
# Procedure: (§1) For each experiment, Ghost(3) cells or IPSC-derived primary macrophages were infected or treated with 500 nM Doxorubicin on coverslips, fixed for 10 mins in fresh 4% paraformaldehyde at room temperature, then washed 3 times in PBS and permeabilised for 10 mins in ice-cold methanol at […]. Coverslips were washed once in PBS and incubated in blocking buffer (5% goat serum, 0.3% TritonX100 in PBS) for 60 mins at room temperature. Cells were incubated in primary antibody solution (1% BSA, 0.3% Triton X100 in PBS) overnight at 4° C. Double strand breaks were detected using rabbit polyclonal anti-phosphohistone H2A.X Ser139 (Cell Signaling). Activated ATM was detected using rabbit monoclonal anti-phosphoATM Ser1981 (Cell Signaling). The ability of p53 to regulate apoptosis was detected using rabbit polyclonal antiphosphop53 Ser46 (Cell Signaling). Viral p24 was detected using mouse monoclonal anti-HIV1p24 (AIDS Research and Reference Reagent Program, Division of AIDS, NIAID, NIH). HuR was detected using mouse monoclonal anti-HuR 3A2 (Santa Cruz Biotechnology). hnRNPK was detected using goat polyclonal anti-hnRNPK P20 (Santa Cruz Biotechnology). Coverslips were washed 3 times (5 mins each on an orbital shaker) with wash buffer (0.05% Tween20 in PBS), followed by incubation with secondary antibodies conjugated to either Atto550 or Atto565 or Atto647 for 60 mins at room temperature. Coverslips were washed 3 times (5 mins each on an orbital shaker) with wash buffer (0.05% Tween20 in PBS). Coverslips were incubated in equilibration buffer (0.4% glucose, 2×SCC) for 5 mins and counter stained with 1 mg/ml DAPI (4′,6-diamidino-2-phenylindole; Life Technologies). Coverslips were mounted in glox buffer (3.7 mg/ml glucose oxidase, 1 U catalase) and imaged.
# For each experiment, cells were infected or treated with drugs on coverslips, fixed for 10 mins in fresh 4% paraformaldehyde at room temperature, then washed 3 times in PBS and permeabilised for 10 mins in ice-cold methanol at −20° C. Coverslips were washed once in PBS and incubated in blocking buffer (5% goat serum, 0.3% Triton-X100 in PBS) for 60 mins at room temperature. Cells were incubated in primary antibody solution (1% BSA, 0.3% Triton X-100 in PBS) overnight at 4° C. Double strand breaks were detected using rabbit polyclonal anti-phospho-histone H2A.X Ser139 (Cell Signaling). Activated ATM was detected using rabbit monoclonal anti-phospho-ATM Ser1981 (Cell Signaling). The ability of p53 to regulate apoptosis was detected using rabbit polyclonal anti-phospho-p53 Ser46 (Cell Signaling). Viral p24 was detected using mouse monoclonal anti-HIV-1-p24 (AIDS Research and Reference Reagent Program, Division of AIDS, NIAID, NIH). HuR was detected using mouse monoclonal anti-HuR 3A2 (Santa Cruz Biotechnology). hnRNP-K was detected using goat polyclonal anti-hnRNP-K P-20 (Santa Cruz Biotechnology). Coverslips were washed 3 times (5 mins each on an orbital shaker) with wash buffer (0.05% Tween-20 in PBS), followed by incubation with secondary antibodies conjugated to either Atto-550 or Atto-565 or Atto-647 for 60 mins at room temperature. Coverslips were washed 3 times (5 mins each on an orbital shaker) with wash buffer (0.05% Tween-20 in PBS). Coverslips were incubated in equilibration buffer (0.4% glucose, 2×SCC) for 5 mins and counter stained with 1 mg/ml DAPI (4′,6-diamidino-2-phenylindole; Life Technologies). Coverslips were mounted in glox buffer (3.7 mg/ml glucose oxidase, 1 U catalase) and imaged.
# [2] = tested on: HIV-1; assay: HIV-1 infection/replication in Ghost(3) reporter cells (LTR-driven GFP expression); assay type: cell-based; conditions: Ghost(3) cells exposed to HIV-1 and treated
# Procedure: Viral stocks were titred using TZMBI cells and used to infect Ghost(3) cells using an MOI=1.0, or IPSO-derived macrophages using an MOI=0.5. Where indicated, Ghost(3) cells were treated with 10 μM of either Raltegravir, Maraviroc, Tenofovir (AIDS Research and Reference Reagent Program, Division of AIDS, NIAID, NIH) or Nutlin3a (Sigma) for up to 48 hours.
# Viral stocks were titred using TZM-BI cells and used to infect Ghost(3) cells using an MOI=1.0, or IPSO-derived macrophages using an MOI=0.5. Where indicated, cells were treated with 10 μM of either Raltegravir, Maraviroc, Tenofovir (AIDS Research and Reference Reagent Program, Division of AIDS, NIAID, NIH) or Doxorubicin (Sigma-Aldrich), or Nutlin3a (Sigma-Aldrich), or MAP2K1 inhibitor (U-0126) or ERK2 inhibitor (FR180204) for up to 48 hours.
# [3] = tested on: Ghost(3) cells; assay type: cell-based; conditions: for apoptosis of HIV-infected cells: HIV-infected Ghost(3) cells exposed to inhibitor (10 μM), 30 hours post-infection
# Procedure: Apoptosis was measured in Ghost(3) cells 30 hours post-infection or drug treatment using the NucView™ 488 Caspase3 Assay Kit (Biotium) in a 96 well format. Data was analysed in MATLAB using a probabilistic region method to measure cell attachment and expressed as percentage cell survival. […] An average of 3000 cells per condition were analysed with the exception of cells treated with Doxorubicin followed by HIV-infection (FIG. 3), cells transfected with lincRNAp21 overexpression constructs followed by Doxorubicin treatment, and cells transfected with full-length lincRNAp21, infected with HIV1 and treated with Nutlin3 (FIG. 25). These latter conditions ( ? ) yielded too few attached cells (<20) at 30 hours for similar analysis.
# Apoptosis was measured in Ghost(3) cells 30 hours post-infection or drug treatment using the NucView™ 488 Caspase-3 Assay Kit (Biotium) in a 96 well format. Data was analysed in MATLAB using a probabilistic region method to measure cell attachment and expressed as percentage cell survival. […] An average of 3000 cells per condition were analysed with the exception of cells treated with Doxorubicin followed by HIV-infection (FIG. 27), cells transfected with lincRNA-p21 overexpression constructs followed by Doxorubicin treatment (FIG. 36), and cells transfected with full-length lincRNA-p21, infected with HIV-1 and treated with Nutlin3 (FIG. 45). These latter conditions ( ? ) yielded too few attached cells (<20) at 30 hours for similar analysis.
# [4] = tested on: HuR; assay: Immunofluorescence of HuR cellular location in Ghost(3) cells; assay type: cell-based; conditions: HIV-infected Ghost(3) cells with inhibitor added (10 μM)
# Procedure: as §1, with “Coverslips were washed 3 times (5 mins each on an orbital shaker) with wash buffer (0.05% Tween20 in PBS), followed by incubation with secondary antibodies conjugated to either Atto550 or Atto565 or Atto647 for 60 mins at room temperature. Coverslips were washed 3 times (5 mins each on an orbital shaker) with wash buffer (0.05% Tween20 in PBS). Coverslips were incubated in equilibration buffer (0.4% glucose, 2×SCC) for 5 mins and counter stained with 1 mg/ml DAPI (4′,6-diamidino-2-phenylindole; Life Technologies). Coverslips were mounted in glox buffer (3.7 mg/ml glucose oxidase, 1 U catalase) and imaged.” left out
# (§2) For each experiment, cells were infected or treated with drugs on coverslips, fixed for 10 mins in fresh 4% paraformaldehyde at room temperature, then washed 3 times in PBS and permeabilised for 10 mins in ice-cold methanol at −20° C. […] Double strand breaks were detected using rabbit polyclonal anti-phospho-histone H2A.X Ser139 (Cell Signaling). Activated ATM was detected using rabbit monoclonal anti-phospho-ATM Ser1981 (Cell Signaling). The ability of p53 to regulate apoptosis was detected using rabbit polyclonal anti-phospho-p53 Ser46 (Cell Signaling). Viral p24 was detected using mouse monoclonal anti-HIV-1-p24 (AIDS Research and Reference Reagent Program, Division of AIDS, NIAID, NIH). HuR was detected using mouse monoclonal anti-HuR 3A2 (Santa Cruz Biotechnology). hnRNP-K was detected using goat polyclonal anti-hnRNP-K P-20 (Santa Cruz Biotechnology). […]
# [5] = tested on: H2A.XpSer139; assay: Immunofluorescence staining of double strand breaks (H2A.XpSer139); assay type: cell-based; conditions: HIV-1 infected cells treated with 10 μM drug
# Procedure: as §1
# as §2, with “C. Coverslips were washed once in PBS and incubated in blocking buffer (5% goat serum, 0.3% Triton-X100 in PBS) for 60 mins at room temperature.” for “C.”
# [6] = tested on: lincRNAp21; assay: lincRNA-p21 expression by RNA FISH spot counts and quantitative RT-PCR; assay type: cell-based, human; conditions: HIV-infected Ghost(3) cells, qRT-PCR relative to HPRT
# Procedure: RNA FISH on Ghost(3) cells was performed according to Raj, 2008 and on primary macrophages according to Schaffer, 2013. For both methods 48 20mer probes (Biosearch) targeted to human lincRNAp21 were synthesised baring a […] C6dT. The amino group was subsequently conjugated to the following NHSester dyes: ATTO565, ATTO647N (ATTOTEC) or Alexa Fluor 647 (Invitrogen). Briefly, oligonucleotide probes were ethanol precipitated and resuspended in 0.1 M sodium tetraborate (Sigma). Approximately 0.3 mg of the NHSester dye (ATTOTEC) was dissolved in dimethyl sulphoxide (Sigma). The dye solution was added to the probe solution and incubated overnight in the dark at 37° C. Following the conjugation reaction, the probes were ethanol precipitated overnight, and resuspended in 0.1 M triethyl ammonium (Sigma). Conjugated probes were separated and purified to enrich for dyeconjugated probes by reverse phase HPLC on a C18 column. […]
# For each experiment, Ghost(3) cells or IPSO-derived primary macrophages were infected or treated with 500 nM Doxorubicin over time and total RNA was extracted from cells using TRIzol® (Life Technologies), treated with RQ1 RNase-free DNase (Promega) and reverse transcribed using SuperScript III Reverse Transcriptase (Life Technologies). Quantitative RTPCR was performed using Sso Fast EvaGreen™ supermix (BioRad) on a BioRad CFX96 real-time PCR detection system. […]
# [7] = Ghost(3) cells exposed to HIV-1 and concurrently treated with 10 μM antiretroviral
# [8] = cells transfected 24 hours with full-length or truncated lincRNA-p21, then Nutlin3a, absence of HIV-1
# [9] = full-length lincRNA-p21 transfected 24 hours, HIV-1 infected 24 hours, then Nutlin3a
# [10] = truncated lincRNA-p21 transfected 24 hours, HIV-1 infected 24 hours, then Nutlin3a
# [11] = HIV-infected Ghost(3) cells exposed to MAP2K1 or ERK2 inhibitor (10 μM), 30 hours post-infection
compound,measurement,setting,value
Maraviroc,cellular location of hnRNP-K,[1]; [7],no nuclear hnRNPK
same,HIV-1 infection / replication (GFP expression),[2],remained uninfected
"COc1ccc(C2=NC(c3ccc(Cl)cc3)C(c3ccc(Cl)cc3)N2C(=O)N2CCNC(=O)C2)c(OC(C)C)c1 (single isomer, unassigned; (-)) [Nutlin3a, (−)-4-(4,5-Bis(4-chlorophenyl)-2-(2-isopropoxy-4-methoxyphenyl)-4,5-dihydro-1H-imidazole-1-carbonyl)piperazin-2-one]",apoptosis,[3]; [8],no apoptosis
same,apoptosis,[3]; [9],undergo apoptosis within 24 hours of Nutlin3a addition; also recorded: underwent apoptosis
same,apoptosis,[3]; [10],do not undergo apoptosis; also recorded: did not undergo apoptosis
same,cellular location of hnRNP-K,"[1]; Ghost(3) cells, Nutlin3a (10 μM) added 24 hours post HIV-1 infection",nuclear localisation of hnRNP-K at 48 hours in GFP-positive cells only; also recorded: nuclear localisation of hnRNPK in HIV-infected cells only; also recorded: nuclear localisation of hnRNP-K in HIV-infected cells only; also recorded: nuclear localisation of hnRNPK at 48 hours in GFP-positive cells only
same,cellular location of hnRNP-K,"[1]; Ghost(3) cells, drug only, no HIV infection",cytoplasmic hnRNP-K; also recorded: no nuclear hnRNPK; also recorded: no nuclear hnRNP-K; also recorded: cytoplasmic hnRNPK
same,cellular location of hnRNP-K,[1]; Nutlin3a added prior to HIV1 infection,no nuclear hnRNPK was observed
same,cellular location of hnRNP-K,[1]; [8],cytoplasmic hnRNPK; also recorded: cytoplasmic hnRNP-K
same,cellular location of hnRNP-K,[1]; [9],showed nuclear hnRNP-K; also recorded: show nuclear hnRNPK
same,cellular location of hnRNP-K,[1]; [10],show nuclear hnRNP-K; also recorded: also showed nuclear hnRNPK; also recorded: also showed nuclear hnRNP-K; also recorded: show nuclear hnRNPK
"N#CC(=C(N)Sc1ccccc1N)C(C#N)=C(N)Sc1ccccc1N [MAP2K1 inhibitor, 1,4-diamino-2,3-dicyano-1,4-bis(2-aminophenylthio)butadiene]",apoptosis of HIV-infected cells,[3],infected cells underwent apoptosis
same,cellular location of HuR,[4],cytoplasmic (and nuclear) HuR
same,cellular location of hnRNP-K,[1]; [11],strong nuclear localisation of hnRNP-K
C[C@H](Cn1cnc2c(N)ncnc21)OCP(=O)(O)O [Tenofovir],cellular location of hnRNP-K,[1]; [7],no nuclear hnRNPK
Cc1nnc(C(=O)NC(C)(C)c2nc(C(=O)NCc3ccc(F)cc3)c(O)c(=O)n2C)o1 [Raltegravir],H2A.X staining in HIV-infected cells,[5],abrogate this effect
same,lincRNA-p21 expression,[6],no change in lincRNAp21 expression; also recorded: does not affect lincRNAp21 expression
same,cellular location of hnRNP-K,[1]; [7],no nuclear hnRNPK over time; also recorded: cytoplasmic hnRNPK
same,HIV-1 infection / replication (GFP expression),[2],no GFP expression
"Nc1n[nH]c2nnc(-c3c(-c4ccccc4)nn4ccccc34)cc12 [ERK2 inhibitor, 5-(2-phenylpyrazolo[1,5-a]pyridin-3-yl)-1H-pyrazolo[3,4-c]pyridazin-3-amine]",apoptosis of HIV-infected cells,[3],infected cells underwent apoptosis
same,cellular location of HuR,[4],Cytoplasmic HuR is not observed; also recorded: HIV-1 able to sequester HuR in the nucleus
same,cellular location of hnRNP-K,[1]; [11],strong nuclear localisation of hnRNP-K
